Laboratory results published in US20250339396A1 (COSMAS THERAPEUTICS DEVELOPMENT INC., priority 2021, published 2025).

Assays:
[1] = Stability of Prodrug D in solvents by HPLC; format: physicochemical
Experimental: For this test, we used HPLC with different solvent systems. […] Therefore, after initial assessment, this method was used for the remaining tests. Prodrug D or UCM924 (comparator) were dissolved in the different solvents listed in the table below and, after the waiting period indicated, HPLC tests were carried out according to the above. The results are shown in the table below, in which the percentages represent the quantity of prodrug D or UCM924 detected in the samples.

[2] = Solubility of Prodrug D; format: physicochemical
From the text: The solubility and stability of Prodrug D as synthesized in Example 2 were studied.

[3] = system: mice (C57/BL); test: Elevated Plus Maze Test (EPMT); format: in vivo, mouse; set-up: key to closed arm time, difference between medians: Actual / closed arm time, difference between medians: Hodges-Lehmann: time in closed arms, in seconds (s); total distance, difference between medians: Actual / total distance, difference between medians: Hodges-Lehmann: unit not given here; conditions: 150 mg/kg oral gavage
Experimental: Prodrug D 150 mg/kg was dissolved in tap water per oral gavage. The solution was prepared <30 seconds before administration (100 μL administration volume).
Behavioral tests performed 2.5-3 hours after drug administration. 8 mice (C57/BL) per group were used received vehicle or Prodrug D.
The EPMT was used to assess anxiety-like reactivity as induced suppression of exploratory behavior. The maze was made of white Plexiglass and consisted of two open arms (16×5 cm) opposite each other and two walled arms (16×5×12 cm) opposite each other. […] The mice were each placed on the central platform facing one of the open arms. EPMT behavior was recorded for 5 min under bright white light (100 W). Behavioral endpoints that were analyzed included time spent in the open vs closed arms, frequency of open arm vs closed arm entries, time spent (s) on the central platform. Anxiolytic agents are known to increase open arm visits and time in the open arm. Anxiogenics increase closed arm visits.
The percentage of the time spent in the open arms was calculated employing the formula […] where OA represents the time (s) spent in open arms and CA is the time (s) spent in the closed arms. Behavioral experiments were recorded and analyzed using an automated tracking system (Video track, View Point Life Science, Montreal, Canada) equipped with infrared lighting-sensitive CCD cameras (Bambico F R et al., 2010).

[4] = system: neuropathic (SNI) rats; test: Mechanical allodynia (von Frey, 50% paw withdrawal threshold) after spared nerve injury (SNI); format: in vivo, rat; conditions: 50 mg/kg per os
Experimental: Experiments were performed in male Sprague-Dawley rats (body weight: 250-300 g; Charles River Laboratories, St. Constant, QC, Canada) and adult male C57BL mice (body weight: 25-30 g; inbred). All animals were housed in small groups at a constant temperature of 22° C., with food and water provided ad libitum, and maintained under a 12 h light/dark cycle (lights on at 7:00 AM; lights off at 7:00 PM). All experimental procedures were conducted in accordance with the guidelines of the Canadian Council on Animal Care, and the protocols were approved by the Animal Care Committee at McGill University.
The different prodrug compounds as synthesized in Example 2 were tested and compared with Gabapentin (150 mg/kg, purchased from Sigma Aldrich, US). Prodrug was dissolved in saline, water, or a vehicle composed of 40% PEG400 and 60% water. Gabapentin was dissolved in a vehicle composed of 40% PEG400 and 60% water. All drugs (doses see the procedure descriptions below) were administrated per os (gavage) through a curved feeding tube (20 G for rats and 22 G for mice) at the beginning of the experiment unless otherwise specified. The dose of prodrug was chosen based on its pharmacokinetic properties, and the doses of Gabapentin were chosen from literature (Lopez-Canul, Palazzo et al. 2015).
Spared nerve injury was performed according to the method of (Decosterd I and Woolf CJ, 2000), see also Lopez-Canul et al., 2015. Rats and mice were anesthetized with isoflurane. The sciatic nerve was exposed at mid-thigh level distal to the trifurcation and freed of connective tissue; the three peripheral branches (sural, common peroneal, and tibial nerves) of the sciatic nerve were exposed without stretching nerve structures. Both tibial and common peroneal nerves were ligated and transected together. Tactile allodynia was absent in healthy (pre-surgery) and sham rats, and the mechanical withdrawal threshold in rats before SNI (pre-surgery) or sham was very close to the cutoff of dynamic plantar aesthesiometer (30 g) (Ugo Basile, Varese, Italy).
On day 14 after surgery, individual rats were placed in a test chamber (clear plastic wire mesh-bottomed cage) and allowed to acclimatize for 30 to 40 minutes. Von Frey filaments (Stoelting, Wood Dale, IL) were used to measure the 50% paw withdrawal threshold using the up-and-down method reported by {Chaplan, 1994 #399}. […] Lifting of the paw indicated a positive response and prompted the use of the […], whereas absence of paw withdrawal after 5 seconds indicated a negative response and prompted the next filament of increasing weight. This paradigm continued for 4 more measurements after the initial change of the behavioral response or until 5 consecutive negative or 4 consecutive positive responses. Based on observations on normal, unoperated, and sham-operated rats, the cutoff value of 15 g was selected as the upper limit for testing because stiffer hairs tended to raise the entire limb rather than to buckle, substantially changing the nature of the stimulus. The resulting scores were used to calculate the 50% response threshold using the formula proposed by Dixon. Allodynia was considered to be present when paw withdrawal thresholds were <4 g, and drugs raising this threshold were considered antiallodynic {Lopez-Canul, 2015}. Accordingly, all nerve ligated rats were verified to be allodynic, responding to a stimulus of <4 g. Rats without mechanical allodynia were excluded. After the determination of the basal response, allodynia was assessed at baseline, 0.5, 1, 1.5, 2, 2.5, 3, 4, 5, 6, 7, and 8 hours post-administration for each treatment described below. Groups of 5 to 6 rats per treatment were used, with each animal being used for 1 treatment only. […]

[5] = 2.5-3 hours after administration, 5 min EPMT

CC(=O)N(CCN(c1ccc(F)cc1)c1cccc(Br)c1)C(=O)OCOC(=O)CN.Cl [Prodrug D, ((acetyl(2-((3-bromophenyl)(4-fluorophenyl)amino)ethyl)carbamoyl)oxy)methyl 2-aminoacetate hydrochloride]
quantity detected in the sample by HPLC ([1]; HPLC Method 1, H2O, 0 h, pH ~7.0): 90.15%
quantity detected in the sample by HPLC ([1]; HPLC Method 2, 1N HCl, overnight at rt, pH ~0): 85.21%
quantity detected in the sample by HPLC ([1]; HPLC Method 2, 40% PEG400:60% H2O, overnight at rt, pH ~7.0): 58.17%
quantity detected in the sample by HPLC ([1]; HPLC Method 2, H2O, 0 h, pH ~7.0): 93.92%
quantity detected in the sample by HPLC ([1]; HPLC Method 2, H2O, overnight at rt, pH ~7.0): 18.28%
quantity detected in the sample by HPLC ([1]; HPLC Method 2, Saturated NaHCO3aq, 2 h at rt, pH ~8.5): 27.21%
stability at different PH ([1]; rank order): acidic>neutral>basic
solubility ([2]; aqueous with cosolvent or surfactant or cyclodextrin, in PEG400:water 40%:60% mixture): > 125 mg/mL
solubility ([2]; in water): > 150 mg/mL
overall effect in the EPMT [3]: antianxiety effects
closed arm time, median [3, 5]: 222.8, n = 8
entries to open, median [3, 5]: 11.00, n = 8
open arm time, median [3, 5]: 56.30, n = 8
total distance, median [3, 5]: 1521, n = 8
closed arm time, difference between medians: Actual ([3]; VEH minus Prodrug D (column A)): 25.75
entries to open, difference between medians: Actual ([3]; VEH minus Prodrug D (column A)): −2
open arm time, difference between medians: Actual ([3]; VEH minus Prodrug D (column A)): −30.85
total distance, difference between medians: Actual ([3]; VEH minus Prodrug D (column A)): −2.35
closed arm time, difference between medians: Hodges-Lehmann ([3]; VEH vs. Prodrug D): 29.45
entries to open, difference between medians: Hodges-Lehmann ([3]; VEH vs. Prodrug D): −2.5
open arm time, difference between medians: Hodges-Lehmann ([3]; VEH vs. Prodrug D): −25.9
total distance, difference between medians: Hodges-Lehmann ([3]; VEH vs. Prodrug D): −116.6
AUC of withdrawal threshold vs. UCM924, t-test p [4]: 0.015
Area Under the Curve (AUC) of withdrawal threshold vs. vehicle, Bonferroni p (FIG. 1B) [4]: < 0.0001
withdrawal threshold over time vs. vehicle (two-way ANOVA, FIG. 1A) ([4]; 0.5-8 h): significantly increased the withdrawal threshold
withdrawal threshold vs. vehicle, Bonferroni post-hoc p ([4]; after 3, 4, 5 and 6 hours): < 0.0001
withdrawal threshold vs. vehicle, Bonferroni post-hoc p ([4]; after 1 hour): 0.05
withdrawal threshold vs. precursor UCM924, Bonferroni post-hoc p ([4]; hour 5): < 0.001
withdrawal threshold vs. precursor UCM924, Bonferroni post-hoc p ([4]; hour 6): < 0.0001
